Consider 11 molecules from PubChem BioAssay AID342 (DTP/NCI, 2004).

“And” between values parts separate entries of the source, which are not always exact repeats. Identical values can stand only once.

The subject of this experiment is Swiss mice, Sarcoma 180 sc, mean tumor weight T/C. As to the kind of experiment: NCI In Vivo Anticancer Drug Screen. Data for tumor model Sarcoma 180 (subcutaneous) in Swiss mice. The following applies: endpoint: mean tumor weight, higher = larger tumour. The gist of the method: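 Readout is the ratio of treated-group measurement to vehicle-control measurement (T/C), based on survival or tumor size in mice carrying transplanted tumors.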

Where [1] appears, read: dose: 111.0 mg/kg/injection, schedule: Q01DX007 (sc), vehicle: steriod suspending solution.
Setting [2] is: dose: 250.0 mg/kg/injection, schedule: Q01DX007 (sc), vehicle: steriod suspending solution.
Where [3] appears, read: dose: 375.0 mg/kg/injection, schedule: Q01DX007 (sc), vehicle: steriod suspending solution.

Broadly, the T/C is the result in the treated group divided by that in the control group, in per cent. Regarding `Nc1nc2n[nH]nc2c(=O)[nH]1`, the T/C runs as follows: (dose: 12.5 mg/kg/injection, schedule: Q01DX007 (ip), vehicle: other) 118 % of control; (dose: 12.5 mg/kg/injection, schedule: Q#A X014 (ip), vehicle: other) 101 % of control; (dose: 15.75 mg/kg/injection, schedule: Q01DX007 (ip), vehicle: other) 78 % of control; (dose: 25.0 mg/kg/injection, schedule: Q01DX007 (ip), vehicle: other) 85 % of control; (dose: 25.0 mg/kg/injection, schedule: Q#A X014 (ip), vehicle: other) 68 % of control; (dose: 31.5 mg/kg/injection, schedule: Q01DX007 (ip), vehicle: carboxymethylcellulose (CMC)) 109 % of control. In addition, the T/C by setting is: (dose: 31.5 mg/kg/injection, schedule: Q01DX007 (ip), vehicle: other) 69 % of control; (dose: 31.5 mg/kg/injection, schedule: Q01DX007 (ip), vehicle: water) 43 % of control; (dose: 50.0 mg/kg/injection, schedule: Q01DX007 (ip), vehicle: other) 70 % of control; (dose: 50.0 mg/kg/injection, schedule: Q#A X014 (ip), vehicle: other) 38 % of control; (dose: 50.4 mg/kg/injection, schedule: Q01DX007 (ip), vehicle: other) 84 % of control; (dose: 63.0 mg/kg/injection, schedule: Q01DX007 (ip), vehicle: carboxymethylcellulose (CMC)) 58 % of control. Besides, the T/C (dose: 63.0 mg/kg/injection, schedule: Q01DX007 (ip), vehicle: other) was 54 % of control and 60 % of control; the T/C (dose: 63.0 mg/kg/injection, schedule: Q01DX007 (ip), vehicle: water) is 57 % of control; the T/C (dose: 84.0 mg/kg/injection, schedule: Q01DX007 (ip), vehicle: other) is 63 % of control; the T/C (dose: 94.5 mg/kg/injection, schedule: Q01DX007 (ip), vehicle: carboxymethylcellulose (CMC)) was 54 % of control; the T/C (dose: 94.5 mg/kg/injection, schedule: Q01DX007 (ip), vehicle: water) is 15 % of control; the T/C (dose: 100.0 mg/kg/injection, schedule: Q01DX007 (ip), vehicle: other) was 95 % of control and 116 % of control. For the same molecule, the T/C by setting is: (dose: 100.0 mg/kg/injection, schedule: Q#A X014 (ip), vehicle: other) 64 % of control; (dose: 126.0 mg/kg/injection, schedule: Q01DX007 (ip), vehicle: carboxymethylcellulose (CMC)) 39 % of control; (dose: 126.0 mg/kg/injection, schedule: Q01DX007 (ip), vehicle: other) 33 % of control; (dose: 126.0 mg/kg/injection, schedule: Q01DX007 (ip), vehicle: water) 18 % of control; (dose: 200.0 mg/kg/injection, schedule: Q01DX007 (ip), vehicle: other) 70 % of control; (dose: 400.0 mg/kg/injection, schedule: Q01DX007 (ip), vehicle: other) 52 % of control.
Regarding `CN(C)Cc1c[nH]c2ccccc12`, the T/C (dose: 62.5 mg/kg/injection, schedule: Q01DX007 (ip), vehicle: carboxymethylcellulose (CMC)) is 69 % of control.
As for `O=C(Nc1ccc(C2=NCCN2)cc1)c1ccc(C(=O)Nc2ccc(C3=NCCN3)cc2)c(Cl)c1`, the T/C is 88 % of control (dose: 18.0 mg/kg/injection, schedule: Q01DX007 (ip), vehicle: carboxymethylcellulose (CMC)); 110 % of control (dose: 20.0 mg/kg/injection, schedule: Q01DX007 (ip), vehicle: water); 96 % of control (dose: 37.0 mg/kg/injection, schedule: Q01DX007 (ip), vehicle: carboxymethylcellulose (CMC)); 117 % of control (dose: 40.0 mg/kg/injection, schedule: Q01DX007 (ip), vehicle: water).
Take `CCCC(=O)OCC1OC(n2cnc3c(=S)nc(N)[nH]c32)C(OC(=O)CCC)C1OC(=O)CCC` (configuration not stated): the T/C is 52 % of control (dose: 4.1 mg/kg/injection, schedule: Q01DX007 (ip), vehicle: carboxymethylcellulose (CMC)); 72 % of control (dose: 6.2 mg/kg/injection, schedule: Q01DX007 (ip), vehicle: carboxymethylcellulose (CMC)); 45 % of control (dose: 9.3 mg/kg/injection, schedule: Q01DX007 (ip), vehicle: carboxymethylcellulose (CMC)); 39 % of control (dose: 47.0 mg/kg/injection, schedule: Q01DX007 (ip), vehicle: carboxymethylcellulose (CMC)).
For the molecule `C[C@@H]1CC2=CC(=O)C=C[C@]2(C)[C@H]2CC[C@@]3(C)[C@@H](CC[C@]3(C)O)[C@H]12`, the T/C runs as follows: under setting [1], 61 % of control and 72 % of control; (dose: 167.0 mg/kg/injection, schedule: Q01DX007 (sc), vehicle: steriod suspending solution) 43 % of control and 62 % of control; under setting [2], 57 % of control and 76 % of control; under setting [3], 38 % of control and 42 % of control and 55 % of control; (dose: 750.0 mg/kg/injection, schedule: Q01DX007 (sc), vehicle: steriod suspending solution) 47 % of control and 69 % of control.
Take `CCCCCCCCCCOP(N)(=O)OCCCCCCCCCC`: the T/C runs as follows: (dose: 27.75 mg/kg/injection, schedule: Q#A X014 (ip), vehicle: carboxymethylcellulose (CMC)) 56 % of control and 64 % of control; (dose: 41.5 mg/kg/injection, schedule: Q#A X014 (ip), vehicle: carboxymethylcellulose (CMC)) 60 % of control and 63 % of control.
As to `COc1ccc2c(c[n+](C)c3c4cc5c(cc4ccc23)OCO5)c1OC`, the T/C by setting is: (dose: 50.0 mg/kg/injection, schedule: Q01DX007 (ip), vehicle: carboxymethylcellulose (CMC)) 60 % of control; (dose: 100.0 mg/kg/injection, schedule: Q01DX007 (ip), vehicle: carboxymethylcellulose (CMC)) 83 % of control.
As for `CC(=O)OCC1=CC2OC(=O)C3=COC(OC4OC(CO)C(O)C(O)C4O)C1C32` (configuration not stated), under “dose: 220.0 mg/kg/injection, schedule: Q01DX007 (ip), vehicle: carboxymethylcellulose (CMC)”, the T/C is 67 % of control.
`NC1C(O)C(O)C(Nc2ncnc3nc[nH]c23)OC1C(O)CO` (configuration not stated): the T/C (dose: 0.44 mg/kg/injection, schedule: Q## X000 (ip), vehicle: carboxymethylcellulose (CMC)) was 100 % of control; the T/C (dose: 0.66 mg/kg/injection, schedule: Q## X000 (ip), vehicle: carboxymethylcellulose (CMC)) is 66 % of control; the T/C (dose: 1.0 mg/kg/injection, schedule: Q## X000 (ip), vehicle: carboxymethylcellulose (CMC)) was 82 % of control; the T/C (dose: 1.5 mg/kg/injection, schedule: Q## X000 (ip), vehicle: carboxymethylcellulose (CMC)) was 72 % of control.
As to `C[C@]12CC[C@H](O)CC1=CC[C@@H]1[C@@H]2[C@@H](O)C[C@@]2(C)[C@H]1CC[C@]2(C)O`, the T/C by setting is: (dose: 25.0 mg/kg/injection, schedule: Q#A X014 (sc), vehicle: steriod suspending solution) 87 % of control; (dose: 100.0 mg/kg/injection, schedule: Q#A X014 (sc), vehicle: steriod suspending solution) 113 % of control; (dose: 200.0 mg/kg/injection, schedule: Q#A X014 (sc), vehicle: steriod suspending solution) 76 % of control.
Turning to `CC(=O)[C@@]1(O)CC[C@H]2[C@@H]3CCC4=CC(=O)CC[C@]4(C)[C@@]3(F)[C@@H](O)C[C@@]21C`, the T/C (dose: 12.0 mg/kg/injection, schedule: Q01DX007 (sc), vehicle: steriod suspending solution) was 67 % of control; the T/C (dose: 25.0 mg/kg/injection, schedule: Q01DX007 (sc), vehicle: steriod suspending solution) was 69 % of control; the T/C (dose: 55.0 mg/kg/injection, schedule: Q01DX007 (sc), vehicle: steriod suspending solution) is 40 % of control; the T/C under setting [1] is 40 % of control and 42 % of control; the T/C (dose: 166.0 mg/kg/injection, schedule: Q01DX007 (sc), vehicle: steriod suspending solution) was 61 % of control; the T/C under setting [2] is 58 % of control. For the same molecule, the T/C under setting [3] was 44 % of control.
